This note sets out measurements from PubChem BioAssay (NCI).

Test systems include SK-MEL-28 melanoma; 786-0 renal; EKVX NSCLC; SR leukemia; HCT-116 colon; HOP-92 NSCLC; A549 NSCLC; SF-295 CNS; NCI-H522 lung; HL-60(TB) leukemia.
Assay in all cases: NCI anticancer screen, dose series, 48 h

The structures appear in SMILES notation.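 These data come from cells grown in 96-well plates and exposed to compound for 48 hours at five concentrations. Here, GI50 denotes the concentration required for 50% inhibition of growth. Definition used: TGI = concentration required for complete inhibition of growth.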

`CCc1nn2ncccc2c1-c1ccnc(NC2CC2)n1`: the GI50 with SK-MEL-28 melanoma was greater than 25 µM; with 786-0 renal, greater than 25 µM; with EKVX NSCLC, greater than 25 µM; in the assay on SR leukemia, greater than 25 µM; in the assay on HCT-116 colon, greater than 25 µM; with HOP-92 NSCLC, greater than 6.73 µM. For the same compound, the GI50 in the assay on A549 NSCLC, in the assay with SF-295 CNS, in the assay on NCI-H522 lung and in the assay on HL-60(TB) leukemia was greater than 25 µM throughout. The TGI in the assay on SK-MEL-28 melanoma, with 786-0 renal, in the assay with EKVX NSCLC, in the assay on SR leukemia, in the assay on HCT-116 colon and with HOP-92 NSCLC was greater than 25 µM each time. For the same compound, the TGI with A549 NSCLC, in the assay with SF-295 CNS, with NCI-H522 lung and in the assay on HL-60(TB) leukemia was greater than 25 µM each time.
Take `COC(=O)N/N=C(\C)C(CN(C)C)C(c1ccccc1)c1c(O)c2ccccc2oc1=O` (stereo not given): the TGI in the assay with SK-MEL-28 melanoma, in the assay on 786-0 renal, with EKVX NSCLC, in the assay on SR leukemia, in the assay on HCT-116 colon and in the assay with HOP-92 NSCLC was greater than 100 µM in each case. In addition, the TGI in the assay on A549 NSCLC, with SF-295 CNS, with NCI-H522 lung and in the assay with HL-60(TB) leukemia was greater than 100 µM throughout.
For `Cc1cccc(Nc2cc(Cl)nc(SCC(=O)O)n2)c1C`, the TGI in the assay on SK-MEL-28 melanoma, in the assay on 786-0 renal, with EKVX NSCLC, in the assay on SR leukemia, in the assay on HCT-116 colon and in the assay with HOP-92 NSCLC was greater than 100 µM throughout. The TGI in the assay on A549 NSCLC, with SF-295 CNS, in the assay on NCI-H522 lung and in the assay on HL-60(TB) leukemia was greater than 100 µM in each case.
For the compound `CCCCCCCCCCOC(=O)c1cc[n+](C)cc1`, the TGI in the assay on SK-MEL-28 melanoma turned out to be 31.3 µM; in the assay on 786-0 renal it was 31.7 µM; with EKVX NSCLC, 30.5 µM; in the assay on SR leukemia it was 32.7 µM; in the assay on HCT-116 colon, 36.6 µM; in the assay on HOP-92 NSCLC, 29.2 µM. Moreover, the TGI in the assay with A549 NSCLC amounted to 31 µM; in the assay on SF-295 CNS it was 30.3 µM; in the assay on NCI-H522 lung, 30 µM; in the assay with HL-60(TB) leukemia, 35.4 µM.
Consider `CC/C(Cc1ccccc1)=C(/c1ccc(O)cc1)c1ccc(OCCN2CCCC2)cc1`, for which the GI50 is 1.72 µM with SK-MEL-28 melanoma; 1.72 µM with 786-0 renal; 1.44 µM with EKVX NSCLC; 1.35 µM in the assay on SR leukemia; 1.83 µM in the assay on HCT-116 colon; 1.61 µM with HOP-92 NSCLC. Moreover, the GI50 in the assay on A549 NSCLC is 2.05 µM; in the assay with SF-295 CNS, 1.81 µM; in the assay on NCI-H522 lung it was 1.89 µM; in the assay with HL-60(TB) leukemia, 1.9 µM. In addition, the TGI came out at 3.42 µM in the assay on SK-MEL-28 melanoma; 3.22 µM in the assay on 786-0 renal; 2.89 µM with EKVX NSCLC; 3.2 µM in the assay with SR leukemia; 3.3 µM in the assay on HCT-116 colon; 3.26 µM in the assay with HOP-92 NSCLC. Besides, the TGI in the assay on A549 NSCLC is 3.82 µM; in the assay with SF-295 CNS, 3.46 µM; with NCI-H522 lung, 3.67 µM; in the assay on HL-60(TB) leukemia it was 3.84 µM.
Regarding `O=C(Nc1ccc2c(c1)OCCO2)C(=O)c1c[nH]c2ccccc12`, the GI50 is 5.6 µM with SK-MEL-28 melanoma; 4.28 µM in the assay on 786-0 renal; 5.37 µM in the assay with EKVX NSCLC; 0.268 µM with SR leukemia; 1.25 µM with HCT-116 colon; 1.34 µM in the assay on HOP-92 NSCLC. The GI50 with A549 NSCLC is 1.18 µM; in the assay on SF-295 CNS it was 1.33 µM; with NCI-H522 lung it was 0.536 µM; with HL-60(TB) leukemia, 1.21 µM. The TGI was greater than 100 µM in the assay with SK-MEL-28 melanoma; 44.9 µM in the assay with 786-0 renal; greater than 100 µM in the assay with EKVX NSCLC; greater than 46.7 µM with SR leukemia; greater than 20.5 µM with HCT-116 colon; 11.1 µM with HOP-92 NSCLC. For the same compound, the TGI in the assay on A549 NSCLC is greater than 100 µM; in the assay with SF-295 CNS, 10.6 µM; in the assay with NCI-H522 lung it was 16.3 µM; in the assay with HL-60(TB) leukemia, greater than 32.9 µM.
Turning to `C=C(CN1c2ccccc2Sc2ccccc21)c1ccc(C(=O)Nc2ccccc2N)cc1`, the GI50 in the assay on SK-MEL-28 melanoma was 43.5 µM; with 786-0 renal, 0.832 µM; in the assay with EKVX NSCLC, greater than 86 µM; in the assay on SR leukemia it was 2.32 µM; in the assay with HCT-116 colon, 11.1 µM; with HOP-92 NSCLC, greater than 47.9 µM. Moreover, the GI50 in the assay on A549 NSCLC is 11.4 µM; in the assay with SF-295 CNS, greater than 38.3 µM; with NCI-H522 lung it was 1.63 µM; with HL-60(TB) leukemia it was 0.184 µM. Further, the TGI with SK-MEL-28 melanoma was greater than 100 µM; with 786-0 renal it was greater than 100 µM; in the assay on EKVX NSCLC, greater than 100 µM; with SR leukemia, greater than 59.5 µM; with HCT-116 colon it was greater than 100 µM; with HOP-92 NSCLC it was greater than 100 µM. Also, the TGI in the assay with A549 NSCLC, in the assay with SF-295 CNS, in the assay on NCI-H522 lung and in the assay on HL-60(TB) leukemia was greater than 100 µM in each case.
